≈ marks a conversion by molar mass, not a printed value. Read-outs that look alike come from different tables or passages of the source. Non-standard residues stand in square brackets, D forms with d. Residues, ends and D or L forms follow the SMILES beside them. Orn = NCCC[C@H](N)C(=O)O
What was measured:
[1] = tested on: C. neoformans strains 1841, H99, and KN99α; assay: Broth microdilution assay (MIC); assay type: cell-based, Cryptococcus neoformans
[2] = tested on: C. neoformans KN99α (serotype A, mating type MATα)
[3] = tested on: C. neoformans 1841 (serotype D); conditions: for MIC (mg/L) 1841 24 h / MIC (mg/L) 1841 48 h: 50% SAB in phosphate buffer
[4] = tested on: C. neoformans H99 (serotype A)
[5] = strains 1841, H99, and KN99α, 24 h
[6] = KN99α (serotype A, mating type MATα, 24 h)
[7] = KN99α (serotype A, mating type MATα, 48 h)
[8] = 1841 (serotype D, 24 h, pH 7.5)
[9] = 1841 (serotype D, 48 h, pH 7.5)
[10] = broth microdilution, 50% SAB in phosphate buffer, 30°C, read after 24 h, n = 6
[11] = broth microdilution, 50% SAB in phosphate buffer, 30°C, read after 48 h, n = 6
[12] = broth microdilution, 50% SAB in phosphate buffer pH 7.5, 5 × 10^4 CFU/mL, 30°C, read after 24 h, mean of six replicates (n = 6)
[13] = broth microdilution, 50% SAB in phosphate buffer pH 7.5, 5 × 10^4 CFU/mL, 30°C, read after 48 h, n = 6
[14] = broth microdilution, 30°C, read after 24 h, n = 6
[15] = broth microdilution, 30°C, read after 48 h, n = 6

Molecule | MIC [1, 5] | MIC (mg/L) KN99α 24 h [2, 6] | MIC (μmol/L) KN99α 24 h [2, 6] | MIC (μmol/L) KN99α 48 h [2, 7] | MIC (μmol/L) 1841 24 h [3, 8] | MIC (μmol/L) 1841 48 h [3, 9] | MIC (μmol/L) H99 24 h ([4]; H99 (serotype A, 24 h)) | MIC (μmol/L) H99 48 h ([4]; H99 (serotype A, 48 h)) | MIC (μmol/L) KN99α 24 h [2, 10] | MIC (μmol/L) KN99α 48 h [2, 11] | MIC (μmol/L) 1841 24 h [3, 12] | MIC (μmol/L) 1841 48 h [3, 13] | MIC (μmol/L) H99 24 h [4, 10] | MIC (μmol/L) H99 48 h [4, 11] | MIC (mg/L) 1841 24 h [3, 14] | MIC (mg/L) 1841 48 h [3, 15] | further results
CC[C@H](C)[C@H](NC(=O)[C@@H](CCCNC(=N)N)NC(=O)[C@H](CCCNC(=N)N)NC(=O)[C@@H]1CCCN1C(=O)[C@@H]1CCCN1C(=O)[C@H](CCCNC(=N)N)NC(=O)[C@@H]1CCCN1C(=O)[C@H](CCCNC(=N)N)NC(=O)[C@@H]1CCCN1C(=O)[C@H](CC(C)C)NC(=O)[C@H](Cc1ccc(O)cc1)NC(=O)[C@@H]1CCCN1C(=O)[C@@H]1CCCN1C(=O)[C@H](CCCCN)NC(=O)[C@H](CC(=O)O)NC(=O)[C@@H](N)C(C)C)C(=O)N[C@@H](Cc1ccc(O)cc1)C(=O)N[C@@H](CC(N)=O)C(=O)N[C@H](CCCNC(=N)N)C(N)=O [Onc112] (H-VDKPPYLPRPRPPR[dR]IYN[dR]-NH2) | 1.6 to 6.7 µmol/L | 8 to 16 mg/L | 3.3 to 6.7 µmol/L | 6.7 to 13 µmol/L | 3.3 µmol/L (≈ 7.89 µg/mL) | 6.7 µmol/L (≈ 16 µg/mL) | 3.3 to 6.7 µmol/L | 6.7 µmol/L (≈ 16 µg/mL) |  |  |  |  |  |  |  |  | MIC (mg/L) KN99α 48 h [2, 7]: 16 to 32 mg/L; MIC (mg/L) H99 24 h ([4]; H99 (serotype A, 24 h)): 8 to 16 mg/L
RRIRPRPPRLPRPRPRPLPFPRPGPRPIPRPLPFPRPGPRPIPRPLPFPRPGPRPIPRP-OH [Bac7 1–60, reference compound] |  |  |  |  |  |  |  |  | 1.1 µmol/L | 1.1 to 2.2 µmol/L | 1.1 µmol/L | 1.1 µmol/L | 1.1 µmol/L | 1.1 µmol/L |  |  | MIC [1]: 1.1 µmol/L; MIC (mg/L) KN99α 48 h [2, 11]: 8 to 16 mg/L
CC[C@H](C)[C@H](NC(=O)[C@@H]1CCCN1C(=O)[C@H](CCCNC(=N)N)NC(=O)[C@@H]1CCCN1C(=O)[C@H](Cc1c[nH]cn1)NC(=O)[C@H](CO)NC(=O)[C@@H](NC(=O)[C@@H]1CCCN1C(=O)[C@H](CCCNC(=N)N)NC(=O)[C@@H]1CCCN1C(=O)[C@H](CO)NC(=O)[C@H](Cc1ccc(O)cc1)NC(=O)[C@@H]1CCCN1C(=O)[C@H](CCCNC(=N)N)NC(=O)[C@@H]1CCCN1C(=O)[C@H](CCCCN)NC(=O)CN)[C@@H](C)O)C(=O)N[C@@H](CCCNC(=N)N)C(=O)N[C@H](C(=O)O)C(C)C [Drosocin, reference compound] (H-GKPRPYSPRPTSHPRPIRV-OH) | > 58 µmol/L |  | >58 µmol/L | >58 µmol/L | 29 µmol/L (≈ 63.8 µg/mL) | 58 µmol/L (≈ 128 µg/mL) | 58 µmol/L (≈ 128 µg/mL) | >58 µmol/L |  |  |  |  |  |  |  |  | 
gu-OPNRYIRPRLPPHPNRPV-NH2 [Api88 scr] |  |  |  |  |  |  |  |  | 28 µmol/L | 56 µmol/L | 7.0 µmol/L | 14 to 28 µmol/L | 28 µmol/L | 56 µmol/L | 16 mg/L | 32 to 64 mg/L | 
CC[C@H](C)[C@H](NC(=O)[C@H](CCCCN)NC(=O)[C@H](CCC(=O)O)NC(=O)CNC(=O)CNC(=O)[C@H](CCCCN)NC(=O)[C@H](CCCNC(=N)N)NC(=O)[C@H](CC(C)C)NC(=O)[C@H](CC(C)C)NC(=O)CN)C(=O)NCC(=O)N[C@@H](CCC(=O)O)C(=O)N[C@@H](CCCCN)C(=O)N[C@@H](CC(C)C)C(=O)N[C@@H](CCCCN)C(=O)N[C@@H](CCCCN)C(=O)N[C@H](C(=O)NCC(=O)N[C@@H](CCC(N)=O)C(=O)N[C@@H](CCCCN)C(=O)N[C@H](C(=O)N[C@@H](CCCCN)C(=O)N[C@@H](CC(N)=O)C(=O)N[C@@H](Cc1ccccc1)C(=O)N[C@@H](Cc1ccccc1)C(=O)N[C@@H](CCC(N)=O)C(=O)N[C@@H](CCCCN)C(=O)N[C@@H](CC(C)C)C(=O)N[C@H](C(=O)N1CCC[C@H]1C(=O)N[C@@H](CCC(N)=O)C(=O)N1CCC[C@H]1C(=O)N[C@@H](CCC(=O)O)C(=O)N[C@@H](CCC(N)=O)C(=O)O)C(C)C)[C@@H](C)CC)[C@@H](C)CC [CRAMP, reference compound] (H-GLLRKGGEKIGEKLKKIGQKIKNFFQKLVPQPEQ-OH) |  |  | 2.1 µmol/L (≈ 8.15 µg/mL) | 2.1 µmol/L (≈ 8.15 µg/mL) | 2.1 µmol/L (≈ 8.15 µg/mL) | 2.1 µmol/L (≈ 8.15 µg/mL) | 2.1 µmol/L (≈ 8.15 µg/mL) | 2.1 µmol/L (≈ 8.15 µg/mL) |  |  |  |  |  |  |  |  | MIC [1]: 2.1 µmol/L (≈ 8.15 µg/mL)
CC[C@H](C)[C@H](NC(=O)[C@H](CCCN)NC(=O)[C@@H](NC(=O)[C@@H](N)CCCN)[C@@H](C)CC)C(=O)N[C@@H](CCCN)C(=O)N[C@@H](CCCNC(=N)N)C(=O)N1CCC[C@H]1C(=O)N[C@H](C(=O)N[C@@H](Cc1ccc(O)cc1)C(=O)N[C@@H](CCCN)C(=O)N1CCC[C@H]1C(=O)N[C@@H](CCCNC(=N)N)C(=O)N1CCC[C@H]1C(=O)N[C@@H](CCCNC(=N)N)C(=O)N1CCC[C@H]1C(=O)N1CCC[C@H]1C(=O)N[C@@H](Cc1c[nH]cn1)C(=O)N1CCC[C@H]1C(=O)N[C@@H](CCCNC(=N)N)C(=O)N[C@@H](CCCNC(=N)N)C(=O)O)C(C)C [Api822] (H-[Orn]I[Orn]I[Orn]RPVY[Orn]PRPRPPHPRR-OH) | 1.6 to 6.7 µmol/L |  | 3.2 µmol/L (≈ 7.88 µg/mL) | 3.2 µmol/L (≈ 7.88 µg/mL) | 3.2 µmol/L (≈ 7.88 µg/mL) | 3.2 µmol/L (≈ 7.88 µg/mL) | 3.2 µmol/L (≈ 7.88 µg/mL) | 3.2 µmol/L (≈ 7.88 µg/mL) |  |  |  |  |  |  |  |  | 
gu-OIOIORPVYOPRPRPPHPRR-OH [Api813] |  |  |  |  |  |  |  |  |  |  | 3.1 µmol/L | 3.1 µmol/L |  |  | 8 mg/L | 8 mg/L | MIC (mg/L) KN99α 24 h [2, 10]: 4 to 8 mg/L; MIC (mg/L) KN99α 48 h [2, 11]: 8 mg/L; MIC (mg/L) H99 24 h [4, 10]: 4 mg/L; MIC (mg/L) H99 48 h [4, 11]: 4 to 8 mg/L
CC[C@H](C)[C@H](NC(=O)CNC(=O)[C@H](CCC(=O)O)NC(=O)[C@H](CCCCN)NC(=O)[C@H](CC(C)C)NC(=O)[C@H](CCCCN)NC(=O)[C@H](CCCCN)NC(=O)[C@@H](NC(=O)CNC(=O)[C@H](CCC(N)=O)NC(=O)[C@H](CCCCN)NC(=O)[C@@H](NC(=O)[C@H](CCCCN)NC(=O)[C@H](CC(N)=O)NC(=O)[C@H](Cc1ccccc1)NC(=O)[C@H](Cc1ccccc1)NC(=O)[C@H](CCC(N)=O)NC(=O)[C@H](CCCCN)NC(=O)[C@H](CC(C)C)NC(=O)[C@@H](NC(=O)[C@@H]1CCCN1C(=O)[C@H](CCC(N)=O)NC(=O)[C@@H]1CCCN1C(=O)[C@H](CCC(=O)O)NC(=O)[C@@H](N)CCC(N)=O)C(C)C)[C@@H](C)CC)[C@@H](C)CC)C(=O)N[C@@H](CCCCN)C(=O)N[C@@H](CCC(=O)O)C(=O)NCC(=O)NCC(=O)N[C@@H](CCCCN)C(=O)N[C@@H](CCCNC(=N)N)C(=O)N[C@@H](CC(C)C)C(=O)N[C@@H](CC(C)C)C(=O)NCC(=O)O [CRAMP rev] (H-QEPQPVLKQFFNKIKQGIKKLKEGIKEGGKRLLG-OH) |  | 4 to 8 mg/L | 1.0 to 2.1 µmol/L | 2.1 µmol/L (≈ 8.15 µg/mL) | 1.0 µmol/L (≈ 3.88 µg/mL) | 2.1 µmol/L (≈ 8.15 µg/mL) | 1.0 µmol/L (≈ 3.88 µg/mL) | 2.1 µmol/L (≈ 8.15 µg/mL) |  |  |  |  |  |  |  |  | 
CC[C@H](C)[C@H](NC(=O)[C@H](CCCN)NC(=O)[C@H](CCCNC(=N)N)NC(=O)[C@@H]1CCCN1C(=O)[C@@H]1CCCN1C(=O)[C@H](CCCNC(=N)N)NC(=O)[C@@H]1CCCN1C(=O)[C@H](CCCNC(=N)N)NC(=O)[C@@H]1CCCN1C(=O)[C@H](CC(C)C)NC(=O)[C@H](Cc1ccc(O)cc1)NC(=O)[C@@H]1CCCN1C(=O)[C@@H]1CCCN1C(=O)[C@H](CCCCN)NC(=O)[C@H](CC(=O)O)NC(=O)[C@@H](N)C(C)C)C(=O)N[C@@H](Cc1ccc(O)cc1)C(=O)N[C@@H](CC(N)=O)C(=O)N[C@@H](CCCN)C(N)=O [Onc72] (H-VDKPPYLPRPRPPR[Orn]IYN[Orn]-NH2; N-terminus and C-terminus assumed) |  | 32 to 64 mg/L | 14 to 28 µmol/L | 56 µmol/L (≈ 129 µg/mL) | 28 µmol/L (≈ 64.6 µg/mL) | 56 µmol/L (≈ 129 µg/mL) | 14 µmol/L (≈ 32.3 µg/mL) | 28 to 56 µmol/L |  |  |  |  |  |  | 64 mg/L (≈ 27.8 µM) | 128 mg/L (≈ 55.5 µM) | MIC (mg/L) H99 48 h ([4]; H99 (serotype A, 48 h)): 64 to 128 mg/L
gu-LRPHPPRPRPIYVPRNNO-NH2 [Api88 rev] |  |  |  |  |  |  |  |  | 7.0 µmol/L | 14 µmol/L | 7.0 µmol/L | 7.0 µmol/L | 7.0 µmol/L | 14 µmol/L |  |  | 
